Legend:
μ-OR = target: T1, μ-OR (Homo sapiens, UniProt P35372); assay: Radioligand binding assay, μ-OR ([3H]DAMGO displacement); conditions: membranes of CHO cells with human recombinant OR, ± SEM (n ≥ 3)
T1 construct: purchased PerkinElmer (Krakow, Poland); host or cells: CHO cells (membranes)
Experimental: (§1) In order to evaluate the affinity of the compounds for μ-, δ-, κ-ORs, radioligand binding assays were performed. Displacement of radioligands, [^3H]DAMGO (μ-OR selective), [^3H]deltorphin-2 (δ-OR selective), and [^3H]U-69593 (κ-OR selective) by the synthetic analogs was investigated in the commercial membranes of CHO cells transfected with human recombinant ORs. […] Due to the modest receptor affinities, the functional activity of the compounds was not investigated.
(§2) Opioid radioligands, [^3H]DAMGO, [^3H]deltorphin-2 and [^3H]U-69593, and human recombinant opioid receptors came from PerkinElmer (Krakow, Poland). GF/B glass fiber strips were purchased from Whatman (Brentford, UK).
(§3) To determine the affinity of peptide analogs at the respective receptors, competition binding experiments were performed. Commercial membranes of CHO cells stably expressing human opioid receptors and the competing radioligands, [^3H]DAMGO, [^3H]deltorphin-2, and [^3H]U-69593 for μ-OR, δ-OR, and κ-OR, respectively, were used. Membranes were incubated in 0.5 mL volume of 50 mM Tris/HCl (pH = 7.4), 0.5% bovine serum albumin (BSA), with a number of peptidase inhibitors (bacitracin, bestatin, captopril) and various concentrations of radioligands for 2 h at 25 °C. Non-specific binding was assessed in the presence of […]. Three independent experiments for each assay were carried out in duplicate. The data were analyzed by a nonlinear least square regression analysis computer program Graph Pad PRISM 6.0 (Graph Pad Software Inc., San Diego, CA, USA). The IC50 values were determined from the logarithmic concentration-displacement curves, and the values of the inhibitory constants (Ki) were calculated according to the equation of Cheng and Prusoff.

[1] = tested on: HT29 (human colorectal adenocarcinoma) cells; assay: MTT viability assay, HT29; type: cell-based; conditions: for IC50: Homo sapiens, HT-29, MTT, 24 h; for Selectivity Index IC503T3/ IC50HT29: 3T3 normal cells as reference
Excerpt: (§4) To investigate whether the compounds have an antitumor activity, we performed in vitro viability assays against a panel of cancer cell lines: HT29 (human colorectal adenocarcinoma), HeLa (human cervical carcinoma), IGROV-1 (human ovarian carcinoma), MCF7 (human breast cancer), PC-3 (human prostate adenocarcinoma), and Jurkat J6 (human […]). The I407 (human embryonic intestinal) and 3T3 (mouse embryonic fibroblast) cells were used as controls. The growth inhibitory concentration was determined by incubating the cells with increasing concentrations (0.01–500 μM) of the compounds for 24 h. Data obtained from cell growth assays were elaborated to assess the concentration of cell viability (IC50) and selectivity indices (SI), and the results are shown in Table 2 and Table 3, respectively.
(§5) HT29 human colorectal adenocarcinoma cells, HeLa human cervix adenocarcinoma cells, MCF7 human breast adenocarcinoma cells, PC-3 human prostate adenocarcinoma cells, J6 Jurkat Clone E6-1 acute T cell leukemia, the healthy I407 human intestine cells, and mouse embryonic fibroblast 3T3 fibroblasts as controls cell lines were purchased from American Type Culture Collection (ATCC, Manassas, VA). The human ovarian cancer cell line IGROV1 has been kindly provided by Prof. Colnaghi (Istituto Nazionale Tumori (IRCCS) (Milano, Italy). Cells were cultured in RPMI 1640 medium (Labtek Eurobio, Milan, Italy), supplemented with 10% FCS (Euroclone, Milano, Italy) and 2 mM L-glutamine (Sigma-Aldrich, Milano, Italy), at 37 °C, and a 5% CO2 atmosphere. The compounds were dissolved in DMSO in a 30–40 mM stock solution. In cell treatments, the final DMSO concentration never exceeded 0.1%.
(§6) Cells were seeded at 1.5 × 10^4 cells/well in a 96-well culture plastic plate (Sarsted, Milan, Italy), and after 24 h of growth were exposed to increasing concentrations of each distinct compound (from 0.010 μM to 500 μM) solubilized in RPMI 1640 medium. MTT assay was performed according to the literature. In brief, after 24 h of treatment, the culture medium was replaced with 0.1 mL of 3-(4,5-dimethylthiazolyl-2)-2,5-diphenyltetrazolium bromide (MTT, Sigma-Aldrich, Milano, Italy) dissolved in PBS at the concentration of 0.2 mg/mL, and samples were incubated for 2 h at 37 °C. The absorbance at 570 nm was measured using a multiwell plate reader (Tecan, Männemorf, Switzerland), and data were analyzed by Prism GraphPad software, and expressed as IC50 μM.

κ-OR = target: T2, κ-OR (Homo sapiens, UniProt P41145); assay: Radioligand binding assay, κ-OR ([3H]U-69593 displacement); conditions: [3H]U-69593, membranes of CHO cells with human recombinant OR; ± SEM (n ≥ 3)
T2 construct: purchased PerkinElmer (Krakow, Poland); host or cells: CHO cells (membranes)
Experimental: as §1, §2, §3

Jurkat J6 cells = assay: MTT viability assay, Jurkat J6; type: cell-based, human; conditions: Homo sapiens, Jurkat; MTT, 24 h
Excerpt: as §4, §5, §6

[2] = tested on: PC-3 (human prostate adenocarcinoma) cells; assay: MTT viability assay, PC3; type: cell-based; conditions: for IC50: Homo sapiens, MTT, 24 h
Excerpt: as §4, §5, §6

[3] = tested on: 3T3 (mouse embryonic fibroblast) cells; assay: MTT viability assay, 3T3; type: cell-based; conditions: 24 h, normal cells
Excerpt: as §4, §5, §6

[4] = tested on: MCF7 (human breast cancer) cells; assay: MTT viability assay, MCF7; type: cell-based; conditions: for IC50: Homo sapiens, MCF7, MTT, 24 h
Excerpt: as §4, §5, §6

δ-OR = target: T3, δ-OR (Homo sapiens, UniProt P41143); assay: Radioligand binding assay, δ-OR ([3H]deltorphin-2 displacement); conditions: [3H]deltorphin-2, membranes of CHO cells with human recombinant OR; ± SEM (n ≥ 3)
T3 construct: purchased PerkinElmer (Krakow, Poland); host or cells: CHO cells (membranes)
Experimental: as §1, §2, §3

[5] = tested on: HeLa (human cervical carcinoma) cells; assay: MTT viability assay, HeLa; type: cell-based; conditions: for IC50: Homo sapiens, MTT, 24 h; for Selectivity Index IC503T3/ IC50HeLa: 3T3 normal cells as reference; for Selectivity Index IC50I407/ IC50HeLa: I407 normal cells as reference
Excerpt: as §4, §5, §6

[6] = tested on: IGROV-1 (human ovarian carcinoma) cells; assay: MTT viability assay, IGROV-1; type: cell-based; conditions: 24 h
Excerpt: as §4, §5, §6

[7] = tested on: I407 (human embryonic intestinal) cells; assay: MTT viability assay, I407; type: cell-based; conditions: Homo sapiens, 24 h, normal cells
Excerpt: as §4, §5, §6

T3 sequence (P41143 whole entry): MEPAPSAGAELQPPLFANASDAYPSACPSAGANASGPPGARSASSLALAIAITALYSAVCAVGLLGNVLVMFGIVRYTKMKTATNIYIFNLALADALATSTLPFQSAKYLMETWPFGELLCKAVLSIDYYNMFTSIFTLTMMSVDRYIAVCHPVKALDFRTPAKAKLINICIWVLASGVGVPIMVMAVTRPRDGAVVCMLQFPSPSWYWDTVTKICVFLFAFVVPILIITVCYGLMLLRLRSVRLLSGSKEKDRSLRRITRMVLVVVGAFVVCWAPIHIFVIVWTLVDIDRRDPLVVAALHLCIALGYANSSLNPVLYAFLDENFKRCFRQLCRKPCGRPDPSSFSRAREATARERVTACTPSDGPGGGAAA
T2 sequence (P41145 whole entry): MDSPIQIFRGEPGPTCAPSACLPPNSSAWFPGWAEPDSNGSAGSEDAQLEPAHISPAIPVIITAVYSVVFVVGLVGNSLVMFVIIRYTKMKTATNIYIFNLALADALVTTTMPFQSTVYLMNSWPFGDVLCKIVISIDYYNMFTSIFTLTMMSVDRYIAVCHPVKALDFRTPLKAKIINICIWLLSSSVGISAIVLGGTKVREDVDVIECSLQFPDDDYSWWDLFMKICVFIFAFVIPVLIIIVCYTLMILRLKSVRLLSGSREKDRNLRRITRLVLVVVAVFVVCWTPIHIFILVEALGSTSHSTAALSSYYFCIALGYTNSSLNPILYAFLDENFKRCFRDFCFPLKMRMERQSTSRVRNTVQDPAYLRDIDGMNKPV
T1 sequence (P35372 whole entry): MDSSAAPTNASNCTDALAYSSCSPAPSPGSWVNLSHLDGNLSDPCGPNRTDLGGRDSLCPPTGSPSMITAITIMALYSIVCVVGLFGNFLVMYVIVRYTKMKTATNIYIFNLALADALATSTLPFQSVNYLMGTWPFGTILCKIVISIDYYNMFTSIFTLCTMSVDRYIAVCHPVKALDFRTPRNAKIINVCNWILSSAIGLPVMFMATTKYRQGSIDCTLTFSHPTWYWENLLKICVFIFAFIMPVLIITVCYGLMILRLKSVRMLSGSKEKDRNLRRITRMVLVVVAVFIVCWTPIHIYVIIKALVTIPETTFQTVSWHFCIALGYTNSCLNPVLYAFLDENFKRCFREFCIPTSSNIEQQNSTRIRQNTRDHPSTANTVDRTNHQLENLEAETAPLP

Row | Compound | Ki (μ-OR) | IC50 [1] | Ki (κ-OR) | Ki (µM) κ-OR (κ-OR) | IC50 (Jurkat J6 cells) | IC50 [2] | Selectivity Index IC50I407/ IC50PC3 ([2]; I407 normal cells as reference) | IC50 [3] | IC50 [4] | Selectivity Index IC50I407/ IC50MCF7 ([4]; I407 normal cells as reference) | Ki (δ-OR) | IC50 [5] | IC50 [6] | IC50 [7] | Selectivity Index IC503T3/ IC50PC3 ([2]; 3T3 normal cells as reference) | Selectivity Index IC503T3/ IC50HeLa [5] | Selectivity Index IC50I407/ IC50HeLa [5] | Selectivity Index IC503T3/ IC50HT29 [1] | Selectivity Index IC503T3/ IC50MCF7 ([4]; 3T3 normal cells as reference) | Selectivity Index IC50I407/ IC50HT29 ([1]; I407 normal cells as reference)
1 | Nc1ccc(CC(=O)N(CCc2c[nH]c3ccccc23)Cc2ccccc2)cc1 [Compound 2] | 54.6 ± 3.5 µM | > 500 µM | 2.5 ± 0.4 µM | low μM range | > 500 µM | 2.13 ± 0.04 µM | 0.164 | > 500 µM | 0.81 ± 0.03 µM | 0.432 | 9 ± 0.6 µM | > 500 µM | > 500 µM | 0.35 ± 0.03 µM |  |  |  |  |  | 
2 | Nc1ccc(CN(CCCO)C(=O)Cc2c[nH]c3ccccc23)cc1 [Compound 7] |  | > 500 µM | 3.8 ± 0.3 µM | low μM range | > 500 µM | > 500 µM |  | > 500 µM | 0.49 ± 0.01 µM |  | 115 ± 45 µM | > 500 µM | > 500 µM | > 500 µM |  |  |  |  |  | 
3 | NC(=O)CN(Cc1ccc(N)cc1)C(=O)Cc1c[nH]c2ccccc12 [Compound 6] | 451 ± 11 µM | > 500 µM | 26.7 ± 9.5 µM |  | > 500 µM | 166 ± 0.03 µM |  | 0.11 ± 0.03 µM | > 500 µM |  | 85.5 ± 2 µM | > 500 µM | > 500 µM | > 500 µM | 0.001 |  |  |  |  | 
4 | Nc1ccc(CC(=O)Nc2ccc(CC(=O)N(CCc3c[nH]c4ccccc34)Cc3ccccc3)cc2)cc1 [Compound 3] | 10.7 ± 1.7 µM | > 500 µM | 7.8 ± 0.2 µM |  | > 500 µM | > 500 µM |  | 0.5 ± 0.04 µM | > 500 µM |  | 6.5 ± 0.8 µM | 5.64 ± 0.01 µM | > 500 µM | 75 ± 0.07 µM |  | 0.089 | 13.29 |  |  | 
5 | Nc1ccc(CNC(=O)Cc2c[nH]c3ccccc23)cc1 [Compound 4] |  | 0.96 ± 0.04 µM | 7.4 ± 1.3 µM |  | > 500 µM | > 500 µM |  | 0.63 ± 0.02 µM | 0.84 ± 0.03 µM |  |  | 1.87 ± 0.02 µM | > 500 µM | > 500 µM |  | 0.337 |  | 0.656 | 0.75 | 
6 | O=C(CCc1ccc(O)cc1)N(CCc1c[nH]c2ccccc12)Cc1ccccc1 [Compound 1] |  | 0.31 ± 0.06 µM | 5 ± 2.9 µM |  | > 500 µM | > 500 µM |  | 164.3 ± 0.01 µM | > 500 µM |  | 37.1 ± 1.4 µM | 25 ± 0.06 µM | > 500 µM | 63 ± 0.06 µM |  | 6.572 | 2.52 | 530 |  | 203.23
